In patent US20230141887A1, “CRYSTAL FORM OF DIAZASPIROPYRAN COMPOUND” (MEDSHINE DISCOVERY INC., priority 2020, published 2023) one finds Kd data, which are given here for one compound.

Changes are numbered by the printed parent chain.

One experiment addresses T1, FLT3(D835Y) (Homo sapiens, UniProt P36888, D835Y).
T1 sequence (P36888 27-993 D835Y): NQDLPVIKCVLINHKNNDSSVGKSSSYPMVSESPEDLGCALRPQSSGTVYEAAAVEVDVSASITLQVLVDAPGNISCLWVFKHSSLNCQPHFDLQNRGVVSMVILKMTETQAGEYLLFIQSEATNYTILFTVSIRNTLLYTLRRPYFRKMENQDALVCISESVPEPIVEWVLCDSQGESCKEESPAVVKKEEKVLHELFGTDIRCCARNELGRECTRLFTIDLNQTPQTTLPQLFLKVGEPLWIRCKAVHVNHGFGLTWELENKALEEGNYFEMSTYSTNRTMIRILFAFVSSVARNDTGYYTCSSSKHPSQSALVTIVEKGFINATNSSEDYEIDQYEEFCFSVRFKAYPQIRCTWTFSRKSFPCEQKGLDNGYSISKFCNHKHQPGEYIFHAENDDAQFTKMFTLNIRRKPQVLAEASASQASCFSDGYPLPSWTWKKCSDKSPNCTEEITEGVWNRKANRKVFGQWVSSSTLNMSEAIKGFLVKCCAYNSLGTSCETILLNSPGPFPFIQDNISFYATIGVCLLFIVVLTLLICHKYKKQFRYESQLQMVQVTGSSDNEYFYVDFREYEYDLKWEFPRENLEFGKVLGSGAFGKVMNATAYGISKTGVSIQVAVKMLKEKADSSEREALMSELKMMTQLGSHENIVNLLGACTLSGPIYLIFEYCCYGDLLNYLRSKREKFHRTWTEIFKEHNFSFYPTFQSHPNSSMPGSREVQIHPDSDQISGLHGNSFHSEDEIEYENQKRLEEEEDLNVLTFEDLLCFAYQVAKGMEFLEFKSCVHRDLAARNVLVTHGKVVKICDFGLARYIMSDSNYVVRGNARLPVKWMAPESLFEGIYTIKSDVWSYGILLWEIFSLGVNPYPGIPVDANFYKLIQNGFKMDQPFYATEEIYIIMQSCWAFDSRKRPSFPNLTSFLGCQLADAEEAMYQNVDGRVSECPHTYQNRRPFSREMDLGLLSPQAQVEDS
Type of experiment: binding. The protocol: (§1) The assay was carried out using KINOMEscan™ technology. The assay compounds were stored in 100% DMSO. The assay was carried out by means of 3-fold dilution and 11-point fitting. All compounds used for Kd determination were dispersed by ultrasound, then directly diluted and tested. All reactions were carried out in a 384-well polypropylene plate. Each portion has a final volume of 0.02 ml. The plate was incubated with shaking at room temperature for 1 hour, and then processed. The kinase concentration in the eluent was finally determined by qPCR method. Kd was obtained by fitting.

The next experiment concerns the target T2, FLT3(N841I) (Homo sapiens, UniProt P36888, N841I).
T2 sequence (P36888 27-993 N841I): T1 sequence (P36888 27-993 D835Y) with Y809D, N815I
Type of experiment: binding. The protocol: as §1

For the compound `CCc1nc(C(N)=O)c(Nc2ccc(N3CCC4(CCN(C)CC4)CC3)c(C)c2)nc1NC1CCOCC1.O=C(O)C(F)(F)F`, the dissociation constant (Kd) (in general, the equilibrium constant for the complex coming apart) at FLT3(D835Y) was determined as 1.4 nM; at FLT3(N841I), 5.4 nM.
